Laboratory results reported in patent US20230094922A1, “METHODS OF THERAPEUTIC PROGNOSTICATION” (GENETIKAPLUS LTD., priority 2020, published 2023).

System: iPSC-derived cortical neurons
Assay type: cell-based
Settings: responders vs non-responders, 10 μM Bupropion

## CC(NC(C)(C)C)C(=O)c1cccc(Cl)c1 (stereo not drawn) [Bupropion, 3-Chloro-N-tert-butyl-β-keto-α-methylphenethylamin]
p<0.01
  logFC LGI1 expression: 0.9793
  logFC LRRC8B expression: 0.4223
  logFC MCM4 expression: 0.5295
  logFC MCUR1 expression: 0.2421
  logFC MDN1 expression: 0.4167
  logFC MEIOC expression: 0.7172
  logFC MGA expression: 0.3064
  logFC MGME1 expression: 0.4368
  logFC MZT1 expression: 0.4887
  logFC NFKBID expression: 0.4452
  logFC NOS2 expression: 1.462
  logFC NPY2R expression: 1.653
  logFC OSBPL11 expression: 0.3394
  logFC PAWR expression: 0.4771
  logFC PCGF5 expression: 0.6056
  logFC PHF6 expression: 0.4686
  logFC POU5F1B expression: 0.9729
  logFC PPAT expression: 0.4669
  logFC PRKDC expression: 0.3963
  logFC PTPN13 expression: 0.5645
  logFC RNGTT expression: 0.3114
  logFC S100A13 expression: 0.7404
  logFC SELENOI expression: 0.336
  logFC SFRP4 expression: 1.737
  logFC SIGLEC10 expression: 0.8067
  logFC SIKE1 expression: 0.3013
  logFC SIM1 expression: 2.052
  logFC SLC7A11 expression: 0.6075
  logFC SLC25A13 expression: 0.3285
  logFC SLC25A17 expression: 0.3611
  logFC SMG1 expression: 0.2796
  logFC SNRNP48 expression: 0.4371
  logFC SPIN4 expression: 0.4838
  logFC STK38L expression: 0.387
  logFC SYCP2L expression: 0.5973
  logFC TFAM expression: 0.4583
  logFC TIGAR expression: 0.4965
  logFC TNFRSF13C expression: 0.5218
  logFC TSGA10IP expression: 0.8595
  logFC TXNRD1 expression: 0.3112
  logFC USP37 expression: 0.2938
  logFC WNT8B expression: 1.79
  logFC WNT10B expression: 1.077
  logFC WWP1 expression: 0.3073
  logFC ZBTB24 expression: 0.4021
  logFC ZC3H13 expression: 0.2827
  logFC ZNF347 expression: 0.3648
  logFC ZWILCH expression: 0.4164
PValue NS
  logFC ACKR1: −1.506
  logFC ACVR2A: −0.6074
  logFC ADGRA1: −1.373
  logFC ADGRG1: −0.7037
  logFC AFAP1: −0.7585
  logFC ANKRD34A: −1.243
  logFC APBA1: −1.797
  logFC APC2: −1.57
  logFC APOL6: −1.252
  logFC ARHGAP22: −2.023
  logFC ASIC2: −1.907
  logFC ATL1: −1.284
  logFC ATP8A1: −1.064
  logFC BCL11A: −1.755
  logFC BTBD8: −0.8605
  logFC C1QL1: −1.952
  logFC C11orf87: −2.65
  logFC C11orf95: −0.652
  logFC C14orf132: −1.198
  logFC CACNA1E: −1.888
  logFC CALY: −1.348
  logFC CARMIL3: −1.181
  logFC CBFA2T3: −1.14
  logFC CDKN2D: −1.375
  logFC CEND1: −1.295
  logFC CHD5: −1.435
  logFC CHRNB4: −1.488
  logFC CHRNG: −1.545
  logFC CNR1: −1.187
  logFC CNTN2: −2.494
  logFC CRYGD: −3.453
  logFC CTIF: −0.9638
  logFC DACT3: −0.903
  logFC DCLK1: −1.159
  logFC DISP3: −1.132
  logFC DLGAP3: −1.159
  logFC DLL4: −2.038
  logFC DNAJC6: −1.057
  logFC DNAJC12: −0.9874
  logFC DNM3: −1.295
  logFC DOC2B: −2.034
  logFC DOK4: −0.8299
  logFC DPF3: −1.335
  logFC DPP6: −1.175
  logFC DUSP8: −1.12
  logFC DUSP26: −1.67
  logFC ELAVL2: −0.9184
  logFC ELAVL3: −1.463
  logFC ELMOD1: −1.395
  logFC EPHB2: −1.009
  logFC ERC2: −0.9757
  logFC ESRRB: −1.635
  logFC ESRRG: −1.003
  logFC FAM78B: −1.309
  logFC FAM131C: −1.177
  logFC FAM155A: −0.6581
  logFC FBLL1: −1.499
  logFC FBXL16: −0.9816
  logFC FLRT2: −0.9821
  logFC FRRS1L: −1.313
  logFC GALNT15: −1.592
  logFC GDAP1L1: −1.2
  logFC GDI1: −0.5928
  logFC GNAT3: −1.874
  logFC GNAZ: −0.8379
  logFC GNG2: −1.148
  logFC GPR12: −2.094
  logFC GPR83: −1.576
  logFC GPRASP1: −0.7562
  logFC GPRIN3: −1.516
  logFC GRIN2B: −2.921
  logFC GRIN3A: −2.57
  logFC GRM6: −1.37
  logFC GRM7: −1.699
  logFC GSE1: −0.6973
  logFC GSTM3: −1.177
  logFC HIVEP3: −1.261
  logFC HPCAL4: −1.489
  logFC INSYN1: −1.208
  logFC INSYN2A: −1.914
  logFC IQSEC3: −1.513
  logFC JAKMIP3: −0.927
  logFC KIDINS220: −0.8542
  logFC KIF1A: −1.165
  logFC KIF21B: −1.336
  logFC KLF7: −0.8775
  logFC L1CAM: −1.21
  logFC LANCL2: −0.7582
  logFC LBH: −0.8003
  logFC MACO1: −0.6324
  logFC MADD: −0.7392
  logFC MAGEE1: −0.8404
  logFC MANEAL: −1.302
  logFC MAOA: −1.531
  logFC MAP3K10: −0.7965
  logFC MAPK8IP1: −1.32
  logFC MAPT: −1.894
  logFC MCF2L: −1.13
  logFC MDGA1: −1.126
  logFC MLLT11: −1.039
  logFC MSANTD1: −1.341
  logFC MTMR4: −0.6785
  logFC MVB12B: −1.106
  logFC MYH3: −3.064
  logFC MYH6: −3.72
  logFC MYT1: −1.297
  logFC MYT1L: −2.032
  logFC NAPB: −1.05
  logFC NCAN: −1.327
  logFC NCS1: −1.056
  logFC NDP: −2.196
  logFC NEFL: −0.8556
  logFC NKAIN2: −1.212
  logFC NOL4L: −0.7376
  logFC NRN1: −0.9586
  logFC NRXN2: −1.352
  logFC NTRK1: −1.53
  logFC NTS: −1.335
  logFC NXPH1: −2.191
  logFC OLFM1: −1.154
  logFC OSBP2: −1.125
  logFC PCDHA5: −1.076
  logFC PCDHA7: −1.111
  logFC PCDHB13: −1.168
  logFC PCDHB15: −1.085
  logFC PCDHGA4: −1.156
  logFC PCDHGA6: −1.871
  logFC PCSK2: −1.936
  logFC PEG3: −3.912
  logFC PEX5L: −1.625
  logFC PHACTR1: −1.247
  logFC PIP4K2B: −0.6164
  logFC PLCL1: −1.271
  logFC PLPPR4: −2.082
  logFC PLPPR5: −1.467
  logFC PLXNA4: −1.432
  logFC PNMA6A: −1.328
  logFC PODXL2: −0.8136
  logFC PRKAR1B: −1.374
  logFC PTGFR: −2.027
  logFC PTPRT: −1.789
  logFC QPCT: −1.04
  logFC RALYL: −2.285
  logFC RGN: −1.436
  logFC RIMS3: −1.119
  logFC ROBO2: −1.394
  logFC RPS6KL1: −1.019
  logFC RTN2: −0.9099
  logFC RTN4: −0.6753
  logFC RUNDC3A: −1.678
  logFC RUSC2: −0.9937
  logFC SBK1: −0.9487
  logFC SCAMP5: −0.8113
  logFC SCRT1: −1.427
  logFC SEPTIN4: −1.513
  logFC SGIP1: −1.239
  logFC SH3GL2: −1.666
  logFC SHC2: −0.6933
  logFC SHC4: −2.453
  logFC SHISA7: −1.011
  logFC SLC1A4: −1.383
  logFC SLC4A3: −1.275
  logFC SLC6A17: −2.434
  logFC SLC24A3: −1.458
  logFC SLC30A10: −1.88
  logFC SLIT1: −1.122
  logFC SLITRK3: −2.443
  logFC SMIM18: −1.721
  logFC SMIM22: −1.921
  logFC SNAP25: −1.475
  logFC SNN: −0.6591
  logFC SOBP: −0.9125
  logFC SOGA3: −1.2
  logFC SOX4: −0.6592
  logFC SPOCK2: −2.032
  logFC SPRN: −1.245
  logFC SRL: −1.711
  logFC STMN3: −1.145
  logFC SYT3: −1.332
  logFC SYT4: −1.54
  logFC SYT5: −1.94
  logFC SYT11: −0.7686
  logFC TACR1: −1.666
  logFC TAFA2: −1.304
  logFC TBC1D30: −1.541
  logFC TCEAL6: −2.546
  logFC TMCC2: −0.92
  logFC TMEM35A: −1.274
  logFC TMEM179: −1.494
  logFC TMEM229B: −1.955
  logFC TMOD2: −1.477
  logFC TNR: −2.583
  logFC TRIM67: −1.894
  logFC UBE2QL1: −1.575
  logFC UNC13A: −0.9018
  logFC VAMP2: −0.7327
  logFC VSTM2L: −1.008
  logFC VWC2: −2.201
  logFC XKR4: −1.301
  logFC XKR7: −1.252
  logFC ZNF436: −0.8527
  logFC ZNF836: −0.9494
